# Assay results published in patent US11505548B2, “Heterocyclic compounds and their use for treatment of helminthic infections and diseases” (Celgene Corporation, priority 2019, dated 2022).
# Read-outs that look alike come from different tables or passages of the source.
# Tested on: Onchocerca gutturosa Adult Male Worms
# Experiment: Onchocerciasis in vitro screening model, worm motility score
# Assay type: cell-based
# Details: read-out: O. gutturosa activity level (IC50 or MED)
# [1] = Onchocerca gutturosa, Table 1 O. gutturosa, levels A/B/C, motility or MTT readout not specified
# [2] = in vitro, Onchocerca gutturosa adult male worms, class A/B/C
IC50 [2] [nM],Compound,IC50 [1] [nM]
–,"CN1CCC(S(=O)(=O)c2ccc(-c3nsc(Nc4ncccc4N(C)C)n3)nc2)CC1 [Compound 142, N3,N3-dimethyl-N2-(3-(5-(1-methylpiperidin-4-ylsulfonyl)pyridin-2-yl)-1,2,4-thiadiazol-5-yl)pyridine-2,3-diamine]",500 to 5000
–,"CN(C)c1cccnc1Nc1nc(-c2ccc(OCC3CC3)cn2)ns1 [Compound 118, N2-(3-(5-(cyclopropyl-methoxy)pyridin-2-yl)-1,2,4-thiadiazol-5-yl)-N3,N3-dimethyl-pyridine-2,3-diamine]",< 200
–,"CC(C)Oc1ccc(-c2nsc(Nc3cc(C(F)(F)F)c(C(C)C)cn3)n2)nc1 [Compound 119, 3-(5-isopropoxy-pyridin-2-yl)-N-(5-isopropyl-4-(trifluoromethyl)pyridin-2-yl)-1,2,4-thiadiazol-5-amine]",< 200
–,"CN1CCC(Oc2ccc(-c3nsc(Nc4ncccc4C(F)(F)F)n3)nc2)CC1 [Compound 55, 3-(5-(1-methyl-piperidin-4-yloxy)pyridin-2-yl)-N-(3-(trifluoromethyl)pyridin-2-yl)-1,2,4-thiadiazol-5-amine]",< 200
–,"CC(C)c1cccnc1Nc1nc(-c2ccc(OC3CCN(C4CC4)CC3(F)F)cn2)ns1 (stereo not drawn) [Compound 87, 3-(5-(1-cyclo-propyl-3,3-difluoro-piperidin-4-yloxy)pyridin-2-yl)-N-(3-isopropylpyridin-2-yl)-1,2,4-thiadiazol-5-amine]",< 200
< 200,"COc1ccc(Nc2nnc(-c3cc(OC4CCCCC4)ccn3)s2)nc1 [Compound 233, 5-(4-(cyclo-hexyloxy)pyridin-2-y1)-N-(5-methoxypyridin-2-yl)-1,3,4-thiadiazol-2-amine]",–
500 to 5000,"CC(=O)N(C)c1cccnc1Nc1nc(-c2cc3c(cn2)CN(C(C)C)C3)ns1 [Compound 310, N-(2-(3-(2-isopropyl-2,3-dihydro-1H-pyrrolo[3,4-c]pyridin-6-yl)-1,2,4-thiadiazol-5-ylamino)pyridin-3-yl)-N-methylacetamide]",–
–,"COc1ccnc(-c2nnc(Nc3ccc(C(F)(F)F)cn3)s2)c1 [Compound 174, 5-(4-methoxy-pyridin-2-yl)-N-(5-(trifluoromethyl)pyridin-2-yl)-1,3,4-thiadiazol-2-amine]",200 to 500
–,"CC(C)c1cccnc1Nc1nc(-c2ccc(O[C@@H]3CCN(C4CC4)C[C@@H]3F)cn2)ns1 [Compound 89, 3-(5-((3S,4R)-1-cyclopropyl-3-fluoro-piperidin-4-yloxy)pyridin-2-yl)-N-(3-isopropylpyridin-2-yl)-1,2,4-thiadiazol-5-amine]",< 200
500 to 5000,"CC(=O)N(C)c1cc(C(F)(F)F)cnc1Nc1n[nH]c(-c2cc3c(cn2)N(C(C)C)CC3)n1 [Compound 295, N-(2-(5-(1-isopropyl-2,3-dihydro-1H-pyrro1o[2,3-c]pyridin-5-yl)-1H-1,2,4-triazol-3-ylamino)-5-(trifluoromethyl)pyridin-3-yl)-N-methylacetamide]",–
500 to 5000,"CC(=O)N(C)c1cnc(-c2nsc(Nc3ncccc3C)n2)cc1C [Compound 270, N-methyl-N-(4-methyl-6-(5-(3-methylpyridin-2-ylamino)-1,2,4-thiadiazol-3-yl)pyridin-3-yl)acetamide]",–
–,"CC(C)Oc1ccc(-c2noc(Nc3ncccc3N(C)C)n2)nc1 [Compound 133, N2-(3-(5-is-opropoxy-pyridin-2-yl)-1,2,4-oxadiazol-5-yl)-N3,N3-dimethyl-pyridine-2,3-diamine]",500 to 5000
–,"Cc1cccnc1Nc1nc(-c2ccc(OC(C)C)cn2)ns1 [Compound 19, 3-(5-isopropoxy-pyridin-2-yl)-N-(3-methyl-pyridin-2-yl)-1,2,4-thiadiazol-5-amine]",< 200
–,"CC(C)Oc1ccc(-c2nsc(Nc3ncccc3C(=O)N(C)C3CC(F)(F)C3)n2)nc1 [Compound 191, N-(3,3-difluoro-cyclobutyl)-2-(3-(5-isoprop-oxypyridin-2-yl)-1,2,4-thiadiazol-5-ylamino)-N-methyl-nicotinamide]",200 to 500
500 to 5000,"c1ccc(-c2ccnc(Nc3nnc(-c4ccccn4)s3)c2)cc1 [Compound 240, N-(4-pheny-lpyridin-2-yl)-5-(pyridin-2-yl)-1,3,4-thiadiazol-2-amine]",–
–,"Cc1cccnc1Nc1nc(-c2ccc(OCC3CC3)cn2)ns1 [Compound 73, 3-(5-(cyclopropyl-methoxy)pyridin-2-yl)-N-(3-methylpyridin-2-yl)-1,2,4-thiadiazol-5-amine]",< 200
–,"CC(C)c1cnc(Nc2nc(-c3ccc(OC4CC4)cn3)ns2)cc1C(F)(F)F [Compound 95, 3-(5-cyclopropoxy-pyridin-2-yl)-N-(5-isopropyl-4-(trifluoromethyl)pyridin-2-yl)-1,2,4-thiadiazol-5-amine]",< 200
–,"CC(C)Oc1cnc(-c2nsc(Nc3ncccc3N(C)C)n2)cc1C(F)(F)F [Compound 156, N2-(3-(5-isopropoxy-4-(trifluoromethyl)pyridin-2-yl)-1,2,4-thiadiazol-5-yl)-N3,N3-dimethyl-pyridine-2,3-diamine]",< 200
–,"COc1ccc(-c2nsc(Nc3cc(C(F)(F)F)c(C(C)C)cn3)n2)nc1 [Compound 66, N-(5-isopropyl-4-(trifluoromethyl)pyridin-2-yl)-3-(5-methoxy-pyridin-2-yl)-1,2,4-thiadiazol-5-amine]",200 to 500
–,"Cc1cccnc1Nc1nc(-c2cc(OC(C)C)c(C(F)(F)F)cn2)ns1 [Compound 152, 3-(4-isoprop-oxy-5-(trifluoromethyl)pyridin-2-yl)-N-(3-methylpyridin-2-yl)-1,2,4-thia-diazol-5-amine]",200 to 500
–,"CC(C)Oc1ccc(-c2nsc(N(C)c3ncccc3C(C)C)n2)nc1 [Compound 130, 3-(5-isopropoxy-pyridin-2-yl)-N-(3-isopropy-lpyridin-2-yl)-N-methyl-1,2,4-thiadiazol-5-amine]",500 to 5000
–,"CC(=O)Nc1ccc(-c2nsc(Nc3ncccc3C)n2)nc1 [Compound 29, N-(6-(5-(3-methylpyridin-2-ylamino)-1,2,4-thiadiazol-3-yl)pyridin-3-yl) acetamide]",200 to 500
–,"CNC(=O)c1cccnc1Nc1nc(-c2ccc(OC(C)C)cn2)ns1 [Compound 189, 2-(3-(5-isoprop-oxypyridin-2-yl)-1,2,4-thiadiazol-5-ylamino)-N-methyl-nicotinamide]",500 to 5000

Compound,IC50 [2] [nM],IC50 [1] [nM]
"Cc1cccnc1Nc1nc(-c2cc(C#N)c(OC(C)C)cn2)ns1 [Compound 200, 5-isopropoxy-2-(5-(3-methylpyridin-2-ylamino)-1,2,4-thiadiazol-3-yl)isonicotino-nitrile]",500 to 5000,–
"c1ccc(-c2ccnc(Nc3nc(-c4ccccn4)ns3)c2)cc1 [Compound 237, N-(4-phenyl-pyridin-2-yl)-3-(pyridin-2-yl)-1,2,4-thiadiazol-5-amine]",500 to 5000,–
"CC(=O)N(c1cccnc1Nc1nc(-c2ccc(OC(C)C)cn2)ns1)C(C)C [Compound 205, N-(2-(3-(5-isopropoxy-pyridin-2-yl)-1,2,4-thiadiazol-5-ylamino)pyridin-3-yl)-N-isopropy-lacetamide]",500 to 5000,–
"CC(=O)N(C)c1cccnc1Nc1nc(-c2cc(C(F)F)c(OC(C)C)cn2)ns1 [Compound 261, N-(2-(3-(4-(difluoromethyl)-5-isopropoxy-pyridin-2-yl)-1,2,4-thiadiazol-5-ylamino)pyridin-3-yl)-N-methylacetamide]",500 to 5000,–
